Experiment: Solubility of benzoyl peroxide in the disclosed solvents
Type: physicochemical
Conditions: room temperature
Method: In embodiments, benzoyl peroxide can be added to the solvents to form a mixture at room temperature, e.g., at a temperature of 25 to about 27° C. Additionally, the benzoyl peroxide/solvent mixture also can be added to other ingredients to form desired products, e.g., emulsions, lotions, creams or gels at low temperatures. […] However the key difference between the disclosed prior art and the present compositions is that the benzoyl peroxide will actively go into solution at levels as high as 10% by weight of the total formulation. These solutions can offer new clear products of increased efficacy.

## O=C(OOC(=O)c1ccccc1)c1ccccc1 [benzoyl peroxide]
  level at which benzoyl peroxide goes into solution: ≤ 10 % by weight of the total formulation

— patent US20060204530A1, “Benzoyl peroxide compositions and methods of use” (JR CHEM, LLC, priority 2005, published 2006)
